System: ARE luciferase activity of 293T cells
Experiment: ARE luciferase reporter gene activity in transfected 293T cells (dual-luciferase, anti-oxidation activity)
Assay type: cell-based
Conditions: tBHQ 10 μM, 6 h, n = 18, control = 1 ± 0.19, relative luciferase activity
Method: The 293T cells in the logarithmic growth phase were inoculated in a 96-well cell culture plate at a density of 2×10^5 cells/mL. After the growth density of the cells reached 70%-80%, the ARE and NF-kB luciferase reporter plasmids pGL4.37 and pGL4.32 (100 ng/well) and the […] luciferase reporter plasmid pGL4.75 (10 ng/well) were simultaneously transfected using the PEI (1 mg/mL) transfection reagent and then cultured for 24 h. After 24 h of culture, cells transfected with the ARE luciferase reporter plasmid pGL4.37 were added to tBHQ (10 μM) and each of the sample solutions of the traditional Chinese compositions of the present disclosure with safe concentrations, respectively, a control group was set, and the cells were cultured for 6 h; cells transfected with the NF-kB luciferase reporter plasmid pGL4.32 were added to TNF-α (10 ng/mL)-dexamethasone (10 μM) diluted with a complete medium and each of the sample solutions of the traditional Chinese compositions of the present disclosure with safe concentrations, respectively, a control group and a model group (10 ng/mL TNF-a) were set, and the cells were cultured for 6 h. The supernatant was discarded, the cells were rinsed with PBS, and after the cells were lysed, the cells were detected by a dual-luciferase detection system. Six duplicate wells were set for each experiment, and each experiment was repeated three times. […]

CC(C)(C)c1cc(O)ccc1O [tBHQ, tertiary butylhydroquinone]
ARE luciferase activity of 293T cells (x ± SD): 6.82 ± 1.28

Source: US20240238358A1, “TRADITIONAL CHINESE MEDICINE COMPOSITION FOR INFECTIOUS DISEASE RECOVERY AND USE THEREOF” (CHINA RESOURCES SANJIU MEDICAL & PHARMACEUTICAL CO., LTD., priority 2021, published 2024)
